Active and inactive are the calls of the source. The calls are words filed in the database; no cut-off is given here.
What was measured:
CWR22R [1] = experiment: Induction of apoptosis in human 22Rv1 cells assessed as late apoptotic cells at 500 nM incubated for 48 hrs by Annexin V/FITC staining based flow cytometry analysis (reference value: 1.12 %); assay type: functional
[2] = Volume of distribution at steady state in Sprague-Dawley rat 2 mg/kg, iv by LC-MS/MS analysis; assay type: ADME, organism-based; settings: in vivo, read-out: Vdss
[3] = Cmax in Sprague-Dawley rat 2 mg/kg, iv by LC-MS/MS analysis; assay type: ADME, organism-based; settings: in vivo
[4] = test system: Protein cereblon/Androgen receptor (Homo sapiens), P10275+Q96SW2 [UNDEFINED MUTATION]; experiment: PROTAC activity at AR-V7/CRBN in human 22Rv1 cells assessed as induction of AR-V7 degradation at 1 uM incubated for 24 hrs by Western blot analysis relative to control; assay type: cell-based; settings: CWR22R
[5] = Toxicity in BALB/c mouse assessed as body weight loss at 10 mg/kg, iv administered once daily for 21 days; assay type: organism-based; settings: in vivo, 504 h, time 21 day
[6] = target: T1, Protein cereblon/Androgen receptor (Homo sapiens, UniProt P10275+Q96SW2); experiment: PROTAC activity at full length Androgen receptor/CRBN in human 22Rv1 cells assessed as induction of full length androgen receptor degradation at 100 nM incubated for 12 hrs in presence of Thalidomide by Western blot analysis; assay type: cell-based
Target sequence in this assay (P10275 whole entry, looked up): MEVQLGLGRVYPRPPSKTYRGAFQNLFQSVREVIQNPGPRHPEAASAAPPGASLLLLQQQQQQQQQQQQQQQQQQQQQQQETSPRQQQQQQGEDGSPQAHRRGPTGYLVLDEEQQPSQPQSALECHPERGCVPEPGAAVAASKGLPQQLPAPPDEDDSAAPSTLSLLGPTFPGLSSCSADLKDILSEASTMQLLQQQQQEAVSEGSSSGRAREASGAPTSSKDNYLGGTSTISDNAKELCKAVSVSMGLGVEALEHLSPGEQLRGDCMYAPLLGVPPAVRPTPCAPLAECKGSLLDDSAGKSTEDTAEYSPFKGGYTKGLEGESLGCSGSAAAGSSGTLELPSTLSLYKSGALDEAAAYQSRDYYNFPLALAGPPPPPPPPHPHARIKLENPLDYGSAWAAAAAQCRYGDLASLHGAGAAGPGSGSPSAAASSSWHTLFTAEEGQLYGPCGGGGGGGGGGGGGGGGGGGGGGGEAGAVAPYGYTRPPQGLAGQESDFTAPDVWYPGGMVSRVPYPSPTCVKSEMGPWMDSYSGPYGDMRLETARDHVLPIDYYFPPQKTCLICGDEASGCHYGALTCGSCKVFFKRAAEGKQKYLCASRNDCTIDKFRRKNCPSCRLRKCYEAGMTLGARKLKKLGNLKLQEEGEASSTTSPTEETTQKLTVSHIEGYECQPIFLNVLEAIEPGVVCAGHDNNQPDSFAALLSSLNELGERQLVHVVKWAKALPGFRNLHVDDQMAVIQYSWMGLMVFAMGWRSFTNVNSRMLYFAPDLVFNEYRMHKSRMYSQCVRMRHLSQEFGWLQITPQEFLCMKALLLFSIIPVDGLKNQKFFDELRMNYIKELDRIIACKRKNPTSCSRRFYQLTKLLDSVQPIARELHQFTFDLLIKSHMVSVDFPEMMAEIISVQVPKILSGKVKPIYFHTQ
Target sequence in this assay (Q96SW2 whole entry, looked up): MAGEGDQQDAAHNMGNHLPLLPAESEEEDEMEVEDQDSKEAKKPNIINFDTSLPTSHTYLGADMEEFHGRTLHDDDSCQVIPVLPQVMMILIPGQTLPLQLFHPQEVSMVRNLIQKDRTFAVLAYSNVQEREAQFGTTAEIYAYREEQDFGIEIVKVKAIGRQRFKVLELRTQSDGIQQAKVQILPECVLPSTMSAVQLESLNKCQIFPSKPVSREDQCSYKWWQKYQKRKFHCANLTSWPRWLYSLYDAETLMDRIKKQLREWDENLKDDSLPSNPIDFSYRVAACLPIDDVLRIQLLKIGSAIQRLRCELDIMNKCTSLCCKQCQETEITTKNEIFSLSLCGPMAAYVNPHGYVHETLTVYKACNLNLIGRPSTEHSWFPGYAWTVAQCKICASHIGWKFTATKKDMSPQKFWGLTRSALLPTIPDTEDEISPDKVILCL

CWR22R [7] = experiment: Antitumor activity against human 22Rv1 cells xenografted in BALB/c nude mouse assessed as suppression of tumor growth at 10 mg/kg, iv administered once daily for 21 days; assay type: functional, organism-based; settings: time 21.0 day
[8] = test system: Protein cereblon/Androgen receptor (Homo sapiens), P10275+Q96SW2 [UNDEFINED MUTATION]; experiment: PROTAC activity at AR-V7/CRBN in human 22Rv1 cells assessed as induction of AR-V7 degradation at 5 uM incubated for 24 hrs by Western blot analysis relative to control; assay type: cell-based; settings: CWR22R
[9] = test system: Protein cereblon/Androgen receptor (Homo sapiens), P10275+Q96SW2 [UNDEFINED MUTATION]; experiment: PROTAC activity at AR-V7/CRBN in human 22Rv1 cells assessed as induction of AR-V7 degradation at 100 nM incubated for 12 hrs in presence of MLN4924 by Western blot analysis; assay type: cell-based; settings: CWR22R
[10] = target: T1, Protein cereblon/Androgen receptor; experiment: PROTAC activity at full length Androgen receptor/CRBN in human 22Rv1 cells assessed as induction of full length androgen receptor degradation at 100 nM incubated for 12 hrs in presence of MG132 by Western blot analysis; assay type: cell-based
Target sequence in this assay (P10275 whole entry, looked up): as the sequence (P10275 whole entry, looked up) above
Target sequence in this assay (Q96SW2 whole entry, looked up): as the sequence (Q96SW2 whole entry, looked up) above

[11] = Initial plasma concentration in Sprague-Dawley rat 2 mg/kg, iv by LC-MS/MS analysis; assay type: ADME, organism-based
LNCaP [12] = experiment: Antiproliferative activity against human LNCaP cells assessed as cell viability incubated for 4 days by CCK-8 assay; assay type: functional, cell-based; settings: 96 h
[13] = target: T1, Protein cereblon/Androgen receptor; experiment: PROTAC activity at full length Androgen receptor/CRBN in human 22Rv1 cells assessed as induction of full length Androgen receptor degradation at 5 uM incubated for 24 hrs by Western blot analysis relative to control; assay type: cell-based
Target sequence in this assay (P10275 whole entry, looked up): as the sequence (P10275 whole entry, looked up) above
Target sequence in this assay (Q96SW2 whole entry, looked up): as the sequence (Q96SW2 whole entry, looked up) above

CWR22R [14] = experiment: Induction of cell cycle arrest in human 22Rv1 cells assessed as accumulation of cells at S phase at 100 nM incubated for 24 hrs by PI staining based flow cytometry analysis (reference value: 28.73%); assay type: functional
[15] = Clearance in Sprague-Dawley rat 2 mg/kg, iv by LC-MS/MS analysis; assay type: ADME, organism-based; settings: in vivo
[16] = target: T1, Protein cereblon/Androgen receptor; experiment: PROTAC activity at full length Androgen receptor/CRBN in human LNCaP cells assessed as reduction in full length androgen receptor level incubated for 24 hrs by Western blot analysis; assay type: cell-based
[17] = AUC (0 to t) in Sprague-Dawley rat 2 mg/kg, iv by LC-MS/MS analysis; assay type: ADME, organism-based; settings: in vivo
[18] = test system: Protein cereblon/Androgen receptor (Homo sapiens), P10275+Q96SW2 [UNDEFINED MUTATION]; experiment: PROTAC activity at AR-V7/CRBN in human 22Rv1 cells assessed as induction of AR-V7 degradation at 0.1 uM incubated for 24 hrs in presence of CHX by Western blot analysis; assay type: cell-based; settings: CWR22R
[19] = Antiproliferative activity against human RWPE-1 cells assessed as cell viability incubated for 4 days by CCK-8 assay; assay type: toxicity, cell-based
[20] = target: T1, Protein cereblon/Androgen receptor; experiment: PROTAC activity at full length Androgen receptor/CRBN in human 22Rv1 cells assessed as induction of full length Androgen receptor degradation at 0.1 uM incubated for 24 hrs in presence of CHX by Western blot analysis; assay type: cell-based
Target sequence in this assay (P10275 whole entry, looked up): as the sequence (P10275 whole entry, looked up) above
Target sequence in this assay (Q96SW2 whole entry, looked up): as the sequence (Q96SW2 whole entry, looked up) above

[21] = Antiproliferative activity against human MCF-10A cells assessed as cell viability incubated for 4 days by CCK-8 assay; assay type: toxicity, cell-based
hERG = hERG (Homo sapiens, UniProt Q12809); experiment: Inhibition of hERG at 10 uM relative to control; assay type: toxicity
LNCaP [22] = experiment: PROTAC activity at AR-V7/CRBN in human LNCaP cells assessed as reduction in AR-V7 level incubated for 24 hrs by Western blot analysis; assay type: cell-based; settings: dose <= 5.0 µM
[23] = Metabolic stability in mouse liver microsome assessed as intrinsic clearance measured upto 45 mins by LC/MS analysis; assay type: ADME; settings: liver microsomes, read-out: CLH
CWR22R [24] = experiment: Antitumor activity against human 22Rv1 cells xenografted in BALB/c nude mouse assessed as redcution in tumor volume at 10 mg/kg, iv administered once daily for 21 days; assay type: functional, organism-based; settings: time 21.0 day
[25] = target: T1, Protein cereblon/Androgen receptor; experiment: PROTAC activity at full length Androgen receptor/CRBN in human 22Rv1 cells assessed as reduction in full length androgen receptor level at 1 uM by Western blot analysis; assay type: cell-based; settings: time 6.0 hrs
Target sequence in this assay (P10275 whole entry, looked up): as the sequence (P10275 whole entry, looked up) above
Target sequence in this assay (Q96SW2 whole entry, looked up): as the sequence (Q96SW2 whole entry, looked up) above

CWR22R [26] = experiment: Antitumor activity against human 22Rv1 cells xenografted in BALB/c nude mouse assessed as redcution in tumor weight at 10 mg/kg, iv administered once daily for 21 days; assay type: functional, organism-based; settings: time 21.0 day
[27] = test system: Protein cereblon/Androgen receptor (Homo sapiens), P10275+Q96SW2 [UNDEFINED MUTATION]; experiment: PROTAC activity at AR-V7/CRBN in human 22Rv1 cells assessed as reduction in AR-V7 level at 100 nM incubated for 24 hrs by immunofluorescence analysis; assay type: cell-based; settings: CWR22R
[28] = MRT (0 to infinity) in Sprague-Dawley rat 2 mg/kg, iv by LC-MS/MS analysis; assay type: ADME, organism-based; settings: in vivo
[29] = target: T1, Protein cereblon/Androgen receptor; experiment: PROTAC activity at full length Androgen receptor/CRBN in human 22Rv1 cells assessed as reduction in full length androgen receptor level at 100 nM incubated for 24 hrs by immunofluorescence analysis; assay type: cell-based
Target sequence in this assay (P10275 whole entry, looked up): as the sequence (P10275 whole entry, looked up) above
Target sequence in this assay (Q96SW2 whole entry, looked up): as the sequence (Q96SW2 whole entry, looked up) above

[30] = Toxicity in BALB/c mouse assessed as kidney damage at 10 mg/kg, iv administered once daily for 21 days by H and E staining based analysis; assay type: organism-based; settings: in vivo, 504 h, time 21 day
CWR22R [31] = experiment: Induction of apoptosis in human 22Rv1 cells assessed as necrotic cells at 100 nM incubated for 48 hrs by Annexin V/FITC staining based flow cytometry analysis (reference value: 2.31 %); assay type: functional
CWR22R [32] = experiment: Antitumor activity against human 22Rv1 cells xenografted in BALB/c nude mouse assessed as reduction in AR-v7 level at 10 mg/kg, iv administered once daily for 21 days; assay type: functional, organism-based; settings: time 21.0 day
[33] = target: T1, Protein cereblon/Androgen receptor; experiment: PROTAC activity at full length Androgen receptor/CRBN in human LNCaP cells assessed as reduction in full length androgen receptor level at 1 uM by Western blot analysis; assay type: cell-based; settings: time <= 4.0 hrs
[34] = Toxicity in BALB/c mouse assessed as liver damage at 10 mg/kg, iv administered once daily for 21 days by H and E staining based analysis; assay type: organism-based; settings: in vivo, 504 h, time 21 day
CWR22R [35] = experiment: Downregulation of PSA mRNA level in human 22Rv1 cells incubated for 24 hrs by qRT-PCR analysis; assay type: functional, cell-based; settings: dose 100-500 nM

Sequence of Protein cereblon/Androgen receptor (Homo sapiens), P10275+Q96SW2 [UNDEFINED MUTATION] (P10275 whole entry, looked up, stated change not applied): as the sequence (P10275 whole entry, looked up) above
Sequence of Protein cereblon/Androgen receptor (Homo sapiens), P10275+Q96SW2 [UNDEFINED MUTATION] (Q96SW2 whole entry, looked up, stated change not applied): as the sequence (Q96SW2 whole entry, looked up) above
Sequence of hERG (Q12809 whole entry): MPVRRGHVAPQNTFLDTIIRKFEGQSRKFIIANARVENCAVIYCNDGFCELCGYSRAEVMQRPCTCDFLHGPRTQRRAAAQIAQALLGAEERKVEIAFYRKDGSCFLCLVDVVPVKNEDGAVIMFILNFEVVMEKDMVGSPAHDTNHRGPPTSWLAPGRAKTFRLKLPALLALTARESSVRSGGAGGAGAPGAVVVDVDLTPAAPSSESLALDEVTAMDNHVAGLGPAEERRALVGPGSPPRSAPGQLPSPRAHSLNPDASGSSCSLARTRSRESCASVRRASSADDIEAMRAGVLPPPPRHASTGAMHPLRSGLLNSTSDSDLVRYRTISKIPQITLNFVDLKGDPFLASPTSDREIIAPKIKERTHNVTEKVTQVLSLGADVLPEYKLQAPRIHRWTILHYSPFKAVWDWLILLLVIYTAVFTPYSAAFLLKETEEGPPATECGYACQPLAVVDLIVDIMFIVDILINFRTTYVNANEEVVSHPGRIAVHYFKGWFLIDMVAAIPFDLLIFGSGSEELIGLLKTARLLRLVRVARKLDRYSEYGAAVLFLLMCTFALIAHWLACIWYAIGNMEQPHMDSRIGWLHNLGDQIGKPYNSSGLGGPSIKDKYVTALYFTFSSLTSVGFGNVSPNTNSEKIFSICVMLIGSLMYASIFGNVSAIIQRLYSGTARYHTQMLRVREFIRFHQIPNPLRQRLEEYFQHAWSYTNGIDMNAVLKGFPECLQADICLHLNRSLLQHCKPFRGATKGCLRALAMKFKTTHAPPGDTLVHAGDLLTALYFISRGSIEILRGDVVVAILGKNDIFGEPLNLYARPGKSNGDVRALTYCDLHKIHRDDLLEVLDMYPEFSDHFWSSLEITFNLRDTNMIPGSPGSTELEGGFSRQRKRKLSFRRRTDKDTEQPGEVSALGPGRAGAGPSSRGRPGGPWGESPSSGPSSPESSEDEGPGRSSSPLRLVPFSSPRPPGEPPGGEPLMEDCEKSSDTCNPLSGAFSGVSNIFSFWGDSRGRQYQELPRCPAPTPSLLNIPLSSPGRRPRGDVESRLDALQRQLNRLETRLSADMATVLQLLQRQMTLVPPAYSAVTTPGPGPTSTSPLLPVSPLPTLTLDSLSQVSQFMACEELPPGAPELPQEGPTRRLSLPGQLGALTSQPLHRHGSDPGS

Vd [2]: 0.571 L/kg
Cmax [3]: 6440 ng/mL
Activity [4]: 88.7%
Activity [6]: Active
Activity [8]: 89.6%
Activity [9]: Active
Activity [10]: Active
C0 [11]: 13900 ng/mL
IC50 (LNCaP [12]): 176 nM
Activity [13]: 90.2%
clearance [15]: 15.1 mL/min/kg
DC50 [16]: 180 nM
Activity ([16]; dose <= 5.0 µM): Dose-dependent-effect
AUC(0-t) [17]: 2210 ng·h/mL
Activity [18]: Active
Activity [20]: Active
CLint scaled [23]: 296 mL/min/kg
Activity [25]: Time-dependent-effect
Activity [27]: Active
MRT inf [28]: 37.2 min
Activity [29]: Active
Activity [33]: Dose-dependent-effect
Structure (SMILES): CC(C)(c1ccc(OCCNc2cccc3c2C(=O)N(C2CCC(=O)NC2=O)C3=O)cc1)c1ccc(OCc2cccc(N3CCOCC3)n2)cc1 (configuration not stated)
Activity (CWR22R [1]): 15.59%
Activity [5]: Non-toxic
Activity (CWR22R [7]): Active
Activity (CWR22R [14]): 43.39%
IC50 at 4 days [19]: > 80000 nM
IC50 at 4 days [21]: > 80000 nM
inhibition at 10 µM (hERG): < 40%
Activity (LNCaP [22]): Dose-dependent-effect
Activity (CWR22R [24]): Active
Activity (CWR22R [26]): Active
Activity [30]: Non-toxic
Activity (CWR22R [31]): 2.13%
Activity (CWR22R [32]): Active
Activity [34]: Non-toxic
Activity (CWR22R [35]): Dose-dependent-effect

— ChEMBL document CHEMBL6153032, “Discovery of a highly potent, N-terminal domain-targeting degrader of AR-FL/AR-V7 for the treatment of prostate cancer” (Eur J Med Chem, 2025)
